# Source: patent EP0183174A2, “Substituted phenoxy urea, processes for its preparation and herbicide containing it as active ingredient” (KUMIAI CHEMICAL INDUSTRY CO., LTD., priority 1984, dated 1986)
# Key:
# monochoria = experiment: Test Example 1: herbicidal test by water treatment in a paddy field; format: in vivo, Monochoria vaginalis Presl; parameters: key: 5: Withered; 4.5: Herbicidal effect (or phytotoxicity) in a range of 90 to 99%; 4: Herbicidal effect (or phytotoxicity) in a range of 80 to 89%; 3.5: Herbicidal effect (or phytotoxicity) in a range of 70 to 79%; 3: Herbicidal effect (or phytotoxicity) in a range of 60 to 69%; 2.5: Herbicidal effect (or phytotoxicity) in a range of 50 to 59%; 2: Herbicidal effect (or phytotoxicity) in a range of 40 to 49%; 1.5: Herbicidal effect (or phytotoxicity) in a range of 30 to 39%; 1: Herbicidal effect (or phytotoxicity) in a range of 20 to 29%; 0.5: Herbicidal effect (or phytotoxicity) in a range of 1 to 19%; 0: No herbicidal effect (or no phytotoxicity); settings: evaluated thirty days after application
# Protocol: Into each porcelain pot having a diameter of 10 cm, paddy soil was filled and puddled, and seeds of barnyardgrass (Echinochloa crus-galli L.), smallflower flatsedge, monochoria and Japanese bulrush were sown, and water was filled in a-depth of 3 cm. One day later, a predetermined amount of the wettable powder prepared in Formulation Example 3 and diluted with water was dropwise applied to the surface of the water (dose of the active ingredient: 4 kg/hectare). Thereafter, they were grown in a green house. Thirty days after the application, the herbicidal effects were evaluated in accordance with the standards as identified in Table 5.
# crabgrass = experiment: Test Example 3: herbicidal test by upland soil treatment; format: in vivo, Digitaria sanquinalis L.; parameters: key: 5: Withered; 4.5: Herbicidal effect (or phytotoxicity) in a range of 90 to 99%; 4: Herbicidal effect (or phytotoxicity) in a range of 80 to 89%; 3.5: Herbicidal effect (or phytotoxicity) in a range of 70 to 79%; 3: Herbicidal effect (or phytotoxicity) in a range of 60 to 69%; 2.5: Herbicidal effect (or phytotoxicity) in a range of 50 to 59%; 2: Herbicidal effect (or phytotoxicity) in a range of 40 to 49%; 1.5: Herbicidal effect (or phytotoxicity) in a range of 30 to 39%; 1: Herbicidal effect (or phytotoxicity) in a range of 20 to 29%; 0.5: Herbicidal effect (or phytotoxicity) in a range of 1 to 19%; 0: No herbicidal effect (or no phytotoxicity); settings: evaluated twenty days after application
# Description: (§1) Into each plastic pot of 600 cm^2, upland soil was filled, then seeds of barnyardgrass, crabgrass, green foxtail, redroot pigweed, rice flatsedge, rice, wheat, maize, soybean, cotton and sugar beet were sown, and they were covered with soil. A predetermined amount of the wettable powder prepared from the test compound in accordance with Formulation Example 3 and diluted with water, was uniformly applied to the surface of the soil at an application rate of 1000 liter/hectare by means of a small size spray. They were grown in a greenhouse, and twenty days after the application, the herbicidal effects and phytotoxicity were evaluated in accordance with the standards as identified in Table 5.
# redroot pigweed [1] = experiment: as above; format: in vivo, Amaranthus retroflexus L.; parameters: key: 5: Withered; 4.5: Herbicidal effect (or phytotoxicity) in a range of 90 to 99%; 4: Herbicidal effect (or phytotoxicity) in a range of 80 to 89%; 3.5: Herbicidal effect (or phytotoxicity) in a range of 70 to 79%; 3: Herbicidal effect (or phytotoxicity) in a range of 60 to 69%; 2.5: Herbicidal effect (or phytotoxicity) in a range of 50 to 59%; 2: Herbicidal effect (or phytotoxicity) in a range of 40 to 49%; 1.5: Herbicidal effect (or phytotoxicity) in a range of 30 to 39%; 1: Herbicidal effect (or phytotoxicity) in a range of 20 to 29%; 0.5: Herbicidal effect (or phytotoxicity) in a range of 1 to 19%; 0: No herbicidal effect (or no phytotoxicity); settings: evaluated twenty days after application
# Description: as §1
# rice flatsedge [2] = experiment: as above; format: in vivo, Cy^perus iria L.; parameters: key: 5: Withered; 4.5: Herbicidal effect (or phytotoxicity) in a range of 90 to 99%; 4: Herbicidal effect (or phytotoxicity) in a range of 80 to 89%; 3.5: Herbicidal effect (or phytotoxicity) in a range of 70 to 79%; 3: Herbicidal effect (or phytotoxicity) in a range of 60 to 69%; 2.5: Herbicidal effect (or phytotoxicity) in a range of 50 to 59%; 2: Herbicidal effect (or phytotoxicity) in a range of 40 to 49%; 1.5: Herbicidal effect (or phytotoxicity) in a range of 30 to 39%; 1: Herbicidal effect (or phytotoxicity) in a range of 20 to 29%; 0.5: Herbicidal effect (or phytotoxicity) in a range of 1 to 19%; 0: No herbicidal effect (or no phytotoxicity); settings: evaluated twenty days after application
# Description: as §1
# redroot pigweed [3] = experiment: Test Example 4: herbicidal test by upland foliage treatment; format: in vivo, Amaranthus retroflexus L.
# Protocol: (§2) Into each plastic pot of 120 cm^2, upland soil was filled, then seeds of barnyardgrass, crabgrass, redroot pigweed and rice flatsedge were sown, and they were grown in a greenhouse until barnyardgrass. reached 3-leaf stage. Each wettable powder prepared from the test compound in accordance with Formulation Example 3 was diluted with water to give the amount of the active ingredient corresponding to 4 kg/hectare, and the diluted solution was uniformly sprayed at an application rate of 1000 liter/hectare from the top of plants by means of a small size spray, when barnyardgrass was in the 3-leaf stage. They were grown in a greenhouse, and twenty days after the application, the herbicidal effects were evaluated in accordance with the standards as identified in Table 5.
# rice flatsedge [4] = experiment: as above; format: in vivo, Cy^perus iria L.; parameters: key: 5: Withered; 4.5: Herbicidal effect (or phytotoxicity) in a range of 90 to 99%; 4: Herbicidal effect (or phytotoxicity) in a range of 80 to 89%; 3.5: Herbicidal effect (or phytotoxicity) in a range of 70 to 79%; 3: Herbicidal effect (or phytotoxicity) in a range of 60 to 69%; 2.5: Herbicidal effect (or phytotoxicity) in a range of 50 to 59%; 2: Herbicidal effect (or phytotoxicity) in a range of 40 to 49%; 1.5: Herbicidal effect (or phytotoxicity) in a range of 30 to 39%; 1: Herbicidal effect (or phytotoxicity) in a range of 20 to 29%; 0.5: Herbicidal effect (or phytotoxicity) in a range of 1 to 19%; 0: No herbicidal effect (or no phytotoxicity)
# Protocol: as §2
# [5] = water treatment in paddy field pot, dose of active ingredient 4 kg/hectare
# [6] = active ingredient 4 kg/hectare, foliage spray 1000 liter/hectare at 3-leaf stage of barnyardgrass, twenty days after application
# [7] = upland foliage treatment, 4 kg/hectare active ingredient, sprayed at 1000 liter/hectare at barnyardgrass 3-leaf stage, evaluated twenty days after application
Compound,Herbicidal effects Monochoria (monochoria; [5]),Herbicidal effects Crab-grass (crabgrass; Dose 1 kg/HA),Herbicidal effects Crab-grass (crabgrass; Dose 4 kg/HA),Herbicidal effects Redroot pigweed (redroot pigweed [1]; Dose 1 kg/HA),Herbicidal effects Redroot pigweed (redroot pigweed [1]; Dose 4 kg/HA),Herbicidal effects Rice flatsedge (rice flatsedge [2]; Dose 1 kg/HA),Herbicidal effects Rice flatsedge (rice flatsedge [2]; Dose 4 kg/HA),Herbicidal effects Redroot pigweed (redroot pigweed [3]; [6]),Herbicidal effects Rice flatsedge (rice flatsedge [4]; [6]),Herbicidal effects Redroot pigweed (redroot pigweed [3]; [7]),Herbicidal effects Rice flatsedge (rice flatsedge [4]; [7]),"Herbicidal effects Monochoria (monochoria; dose of the active ingredient 4 kg/hectare, wettable powder applied to water surface one day after sowing)"
"CC(C)N(C)C(=O)NOc1cc(Cl)cc(Cl)c1 [Compound No. 186, 3-(3,5-Dichlorophenoxy)-1-isopropyl-1-methyl urea trichloroacetate]",5,5,5,5,5,5,5,2 (Herbicidal effect (or phytotoxicity) in a range of 40 to 49%),4 (Herbicidal effect (or phytotoxicity) in a range of 80 to 89%),,,
COCCNC(=O)NOc1cc(Cl)ccc1Cl [Compound No. 243],5,5,5,5,5,5,5,,,4 (Herbicidal effect (or phytotoxicity) in a range of 80 to 89%),5,
"CN(C)C(=O)NOc1cc(Cl)ccc1Cl [Compound No. 1, 3-(2,5-Dichlorophenoxy)-1,1-dimethyl urea]",,5,5,5,5,5,5,4 (Herbicidal effect (or phytotoxicity) in a range of 80 to 89%),5,,,5
"CON(C)C(=O)NOc1cc(Cl)ccc1Cl [Compound No. 242, 3-(2,5-Dichlorophenoxy)-1-methoxy-1-methyl urea]",5,5,5,5,5,5,5,,,3 (Herbicidal effect (or phytotoxicity) in a range of 60 to 69%),5,
